These are literature values, as cited in US8691302B2, “Peptide-containing seasoning” (Kikkoman Corporation, priority 2008, dated 2014).

For series [1], the target named is angiotensin converting enzyme (Homo sapiens, UniProt P12821). Conditions: reported in Non-patent Reference 1.
For series [2] the following is noted: reported in Non-patent Reference 1.

angiotensin converting enzyme, sequence (P12821 30-1306, species assumed): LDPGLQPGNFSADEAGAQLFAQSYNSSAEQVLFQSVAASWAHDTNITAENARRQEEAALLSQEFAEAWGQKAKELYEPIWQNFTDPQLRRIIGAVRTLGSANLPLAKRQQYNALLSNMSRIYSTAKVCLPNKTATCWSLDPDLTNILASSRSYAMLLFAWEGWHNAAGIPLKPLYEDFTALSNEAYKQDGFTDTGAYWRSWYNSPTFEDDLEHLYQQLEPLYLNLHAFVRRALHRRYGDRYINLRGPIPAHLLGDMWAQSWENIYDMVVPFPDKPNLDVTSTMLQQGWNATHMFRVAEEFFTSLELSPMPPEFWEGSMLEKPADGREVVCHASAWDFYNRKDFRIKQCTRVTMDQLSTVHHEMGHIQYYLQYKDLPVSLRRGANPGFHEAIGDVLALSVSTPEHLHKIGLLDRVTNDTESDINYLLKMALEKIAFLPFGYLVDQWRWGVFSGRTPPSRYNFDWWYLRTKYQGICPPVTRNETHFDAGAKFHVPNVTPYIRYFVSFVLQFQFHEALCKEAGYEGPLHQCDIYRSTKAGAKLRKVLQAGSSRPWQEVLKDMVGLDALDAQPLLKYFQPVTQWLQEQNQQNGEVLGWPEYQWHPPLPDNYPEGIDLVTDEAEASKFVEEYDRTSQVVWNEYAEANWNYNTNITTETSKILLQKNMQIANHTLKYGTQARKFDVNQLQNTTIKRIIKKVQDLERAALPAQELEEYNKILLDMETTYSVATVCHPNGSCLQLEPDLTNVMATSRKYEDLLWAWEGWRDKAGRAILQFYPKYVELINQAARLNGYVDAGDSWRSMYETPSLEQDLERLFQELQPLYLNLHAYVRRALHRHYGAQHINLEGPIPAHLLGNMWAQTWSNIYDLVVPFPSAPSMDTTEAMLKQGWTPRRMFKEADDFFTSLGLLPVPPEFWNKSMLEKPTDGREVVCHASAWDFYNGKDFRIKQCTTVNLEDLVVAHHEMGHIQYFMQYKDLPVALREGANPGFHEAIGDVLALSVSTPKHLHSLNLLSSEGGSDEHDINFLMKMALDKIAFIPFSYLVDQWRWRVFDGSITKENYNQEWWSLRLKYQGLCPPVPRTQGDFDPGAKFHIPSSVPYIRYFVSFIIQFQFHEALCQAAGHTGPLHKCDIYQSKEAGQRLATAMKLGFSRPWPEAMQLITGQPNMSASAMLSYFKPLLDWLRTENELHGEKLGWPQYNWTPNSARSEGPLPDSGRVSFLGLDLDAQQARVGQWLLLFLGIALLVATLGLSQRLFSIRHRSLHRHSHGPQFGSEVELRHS

For the substance Ser-Tyr, the “angiotensin converting enzyme inhibitory activity” value in series [1] was “have an angiotensin converting enzyme inhibitory activity”. For the same substance, the hypotensive activity entry in series [2] was “a hypotensive activity”.
Take Gly-Tyr: in series [1], the “angiotensin converting enzyme inhibitory activity” value is recorded as “have an angiotensin converting enzyme inhibitory activity”. For the same substance, the hypotensive activity result in series [2] is given as “a hypotensive activity”.
